Test results as given in patent US20250197387A1, “BCL-XL DEGRADERS AND USES THEREOF” (Kymera Therapeutics, Inc., priority 2021, published 2025).

Experiments:
[1] = biological target: T1, BCL-XL (Homo sapiens, UniProt Q07817); assay: BCL-XL degradation assay, western blot in MOLT-4 cells, 16 h; assay type: cell-based; settings: western blot, MOLT-4 cells, 16 h; for Dmax: read-out: Bcl-xL WB in MOLT-4 degradation 16 h: Average Dmax %; for DC50: read-out: Bcl-xL WB in MOLT-4 degradation 16 h: Mean external-Abs DC50
T1 construct: endogenous in cells; host or cells: MOLT-4
Description: Compounds treatment: compounds were reconstituted in DMSO to make a stock concentration of 10 mM. MOLT-4 cells were maintained in RPMI-1640+10% FBS+1% Penicillin-Streptomycin. Cells were seeded into 6-well plates in 2 mL at the seeding density of 2e6 cells/mL. Compounds were added to the cells to a final concentration ranging 0.02-10 μM. After 16 hr incubation at 37° C., in a CO2 incubator, cells were collected in an Eppendorf tube and centrifuged at 200×g for 5 minutes, the supernatant removed and pellets washed with ice-cold PBS, centrifuged and supernatant removed again. Then. 50 μl of pre-chilled RIPA lysis buffer (Boston BioProducts. BP-115D) with protease and phosphatase inhibitors (Roche Applied Science. #04906837001 and #04693116001) was added into cell pellet to lyze the cells for 20 minutes under 4° C. Cell lysates were spin at 13000 rpm for 10 minutes. Supernatants were collected and protein concentration was measured by BCA assay kit (Solarbio. PC0020-500) following the manufacturer's protocol. Samples' final protein concentration was adjusted to 3.75 μg/uL with the RIPA lysis buffer based on BCA assay results and 4× loading buffer (Invitrogen. NP0007) was added into the samples and samples were heated to 85° C., for 10 min and then let cool at RT. Samples were centrifuged at 13000 rpm for 10 min and then loaded into a 26-well NuPAGER. Novex 4-12% Bis-Tris Midi Gel (Invitrogen. WG1403BOX) and run in NuPAGER MOPS SDS Running Buffer (Invitrogen. NP0001) for 180 minutes at 70 V into a XCell4 SureLock™ Midi-Cell Runner (Invitrogen. WR0100). Gel were transferred using the Invitrogen iBlot gel transfer device (Invitrogen. IB21001) and the nitrocellulose transfer stacks (Invitrogen, IB23001) with Program PO for 9 minutes. The membrane was then blocked with 5% bovin serum albumin for 1 hr at RT, then incubated with primary antibodies diluted in blocking buffer (LI-COR. 927-60001) and shake at 4° C., overnight. The primary antibodies were anti-BCL-xL antibody (CST. 2762:1:1000), anti-beta-actin (CST. 3700; 1:5000) and anti-GAPDH (CST. 97166:1:5000). Membranes were then washed three times with PBST for 15 minutes at RT. Secondary antibodies IR-Dye 680 CW Goat anti Mouse IgG (LI-COR. 926-68070) and IR-Dye 800 CW Goat anti Rabbit IgG (LI-COR. 926-32211) were diluted at a ratio of 1:10000 into PBST and membranes incubated for 1 hour at RT. Membranes were then washed three times with PBST for 15 minutes at RT. The western blot images were obtained using Odyssey Imaging System and quantified using Image Studio Lite Ver 5.2 software.
(§1) The letter codes for BCL-XL DC50 include: A (<0.01 μM); B (0.01-0.1 μM); C (>[…]); D (>0.5-1.0 μM); and E (>1.0 μM). The letter codes for Dmax % include A (>75%); B (50 to 75%); C (<50%).

[2] = biological target: T1, BCL-XL; assay: Bcl-xL ELISA degradation in MOLT-4 cells, 6 h; assay type: cell-based; settings: for DC50: read-out: Bcl-xL ELISA in MOLT-4 degradation 6 h: Mean external-Abs DC50
Description: as §1

T1 sequence (Q07817 whole entry): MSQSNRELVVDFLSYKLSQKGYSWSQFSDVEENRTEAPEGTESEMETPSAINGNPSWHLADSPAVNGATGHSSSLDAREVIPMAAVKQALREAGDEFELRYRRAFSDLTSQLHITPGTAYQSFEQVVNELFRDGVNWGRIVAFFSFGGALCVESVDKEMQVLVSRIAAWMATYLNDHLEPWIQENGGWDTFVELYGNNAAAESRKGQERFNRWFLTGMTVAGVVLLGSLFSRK

SMILES	Dmax [1]	DC50 [1]	Dmax [2]	DC50 [2]
Cc1ncsc1-c1ccc(CNC(=O)[C@@H]2C[C@@H](O)CN2C(=O)[C@@H](NC(=O)C2(F)CC2)C(C)(C)C)c(O[C@H]2CC[C@H](N3CCN(CC[C@H](CSc4ccccc4)Nc4ccc(S(=O)(=O)NC(=O)c5ccc(N6CCN(CC7=C(c8ccc(Cl)cc8)CCC(C)(C)C7)CC6)cc5)cc4S(=O)(=O)C(F)(F)F)CC3)CC2)c1 (single isomer, unassigned) [I-114]	< 50%	> 1000 nM	–	–
Cc1ncsc1-c1ccc(CNC(=O)[C@@H]2C[C@@H](O)CN2C(=O)[C@@H](NC(=O)C2(F)CC2)C(C)(C)C)c(O[C@H]2CC[C@@H](N3CCN(CC[C@H](CSc4ccccc4)Nc4ccc(S(=O)(=O)NC(=O)c5ccc(N6CCN(CC7=C(c8ccc(Cl)cc8)CCC(C)(C)C7)CC6)cc5)cc4S(=O)(=O)C(F)(F)F)CC3)CC2)c1 (single isomer, unassigned) [I-115]	< 50%	> 1000 nM	–	–
Cc1ncsc1-c1ccc([C@H](C)NC(=O)[C@@H]2C[C@@H](O)CN2C(=O)[C@@H](NC(=O)CCCCCCCCC(=O)N2CCN(CC[C@H](CSc3ccccc3)Nc3ccc(S(=O)(=O)NC(=O)c4ccc(N5CCN(CC6=C(c7ccc(Cl)cc7)CCC(C)(C)C6)CC5)cc4)cc3S(=O)(=O)C(F)(F)F)CC2)C(C)(C)C)cc1 [I-1, (2S,4R)-1-((S)-2-(10-(4-((R)-3-((4-(N-(4-(4-((4′-chloro-4,4-dimethyl-3,4,5,6-tetrahydro-[1,1′-biphenyl]-2-yl)methyl)piperazin-1-yl)benzoyl)sulfamoyl)-2-((trifluoromethyl)sulfonyl)phenyl)amino)-4-(phenylthio)butyl)piperazin-1-yl)-10-oxodecanamido)-3,3-dimethylbutanoyl)-4-hydroxy-N-((S)-1-(4-(4-methylthiazol-5-yl)phenyl)ethyl)pyrrolidine-2-carboxamide]	> 75%	100 to 500 nM	–	–
Cc1ncsc1-c1ccc(CNC(=O)[C@@H]2C[C@@H](O)CN2C(=O)[C@@H](NC(=O)C2(F)CC2)C(C)(C)C)c(OCCCC(=O)N(C)CC#Cc2ccc(OCCCc3sc(N4CCc5cccc(C(=O)Nc6nc7ccccc7s6)c5C4)nc3C(=O)O)c(F)c2)c1 [I-6]	> 75%	100 to 500 nM	–	–
Cc1ncsc1-c1ccc(CNC(=O)[C@@H]2C[C@@H](O)CN2C(=O)[C@@H](NC(=O)C2(F)CC2)C(C)(C)C)c(OCCCCCC(=O)N(C)CC#Cc2ccc(OCCCc3sc(N4CCc5cccc(C(=O)Nc6nc7ccccc7s6)c5C4)nc3C(=O)O)c(F)c2)c1 [I-7]	50 to 75%	500 to 1000 nM	–	–
Cc1ncsc1-c1ccc(CNC(=O)[C@@H]2C[C@@H](O)CN2C(=O)[C@@H](NC(=O)C2(F)CC2)C(C)(C)C)c(OCCCC(=O)N(C)CCCc2cccc(F)c2OCCCc2sc(N3CCc4cccc(C(=O)Nc5nc6ccccc6s5)c4C3)nc2C(=O)O)c1 [I-12]	50 to 75%	500 to 1000 nM	–	–
Cc1ncsc1-c1ccc([C@H](C)NC(=O)[C@@H]2C[C@@H](O)CN2C(=O)[C@@H](NC(=O)C2CC3CCC(C2)N3c2ccc(S(=O)(=O)NC(=O)c3nc(N4CCc5cccc(C(=O)Nc6nc7ccccc7s6)c5C4)ccc3-c3cnn(CC4CCCCC4)c3C)cc2)C(C)(C)C)cc1 (some centres unmarked) [I-278]	–	–	> 75%	10 to 100 nM
Cc1ncsc1-c1ccc(CNC(=O)[C@@H]2C[C@@H](O)CN2C(=O)[C@@H](NC(=O)C2(F)CC2)C(C)(C)C)c(OC2CCN(CC[C@H](CSc3ccccc3)Nc3ccc(S(=O)(=O)NC(=O)c4ccc(N5CCN(CC6=C(c7ccc(Cl)cc7)CCC(C)(C)C6)CC5)cc4)cc3S(=O)(=O)C(F)(F)F)CC2)c1 [I-281]	–	–	< 50%	–
Cc1cc(C(C(=O)N2C[C@H](O)C[C@H]2C(=O)NCc2ccc(-c3scnc3C)cc2OCCN2CCN(CC[C@H](CSc3ccccc3)Nc3ccc(S(=O)(=O)NC(=O)c4ccc(N5CCN(CC6=C(c7ccc(Cl)cc7)CCC(C)(C)C6)CC5)cc4)cc3S(=O)(=O)C(F)(F)F)CC2)C(C)C)on1 (some centres unmarked) [I-282]	–	–	50 to 75%	100 to 500 nM

Now from value to molecule:

Dmax [1]	DC50 [1]	Dmax [2]	DC50 [2]	SMILES
> 75%	100 to 500 nM	–	–	Cc1ncsc1-c1ccc([C@H](C)NC(=O)[C@@H]2C[C@@H](O)CN2C(=O)[C@@H](NC(=O)CCCC(=O)N(C)CC#Cc2ccc(OCCCc3sc(N4CCc5cccc(C(=O)Nc6nc7ccccc7s6)c5C4)nc3C(=O)O)c(F)c2)C(C)(C)C)cc1 [I-2]
> 75%	10 to 100 nM	–	–	Cc1ncsc1-c1ccc([C@H](C)NC(=O)[C@@H]2C[C@@H](O)CN2C(=O)[C@@H](NC(=O)CCCCCC(=O)N(C)CC#Cc2ccc(OCCCc3sc(N4CCc5cccc(C(=O)Nc6nc7ccccc7s6)c5C4)nc3C(=O)O)c(F)c2)C(C)(C)C)cc1 [I-3]
> 75%	100 to 500 nM	–	–	Cc1ncsc1-c1ccc([C@H](C)NC(=O)[C@@H]2C[C@@H](O)CN2C(=O)[C@@H](NC(=O)CCCC(=O)N(C)CCCc2cccc(F)c2OCCCc2sc(N3CCc4cccc(C(=O)Nc5nc6ccccc6s5)c4C3)nc2C(=O)O)C(C)(C)C)cc1 [I-9]
> 75%	100 to 500 nM	–	–	Cc1ncsc1-c1ccc([C@H](C)NC(=O)[C@@H]2C[C@@H](O)CN2C(=O)[C@@H](NC(=O)CCCCCC(=O)N(C)CCCc2cccc(F)c2OCCCc2sc(N3CCc4cccc(C(=O)Nc5nc6ccccc6s5)c4C3)nc2C(=O)O)C(C)(C)C)cc1 [I-10]
> 75%	100 to 500 nM	–	–	Cc1ncsc1-c1ccc([C@H](C)NC(=O)[C@@H]2C[C@@H](O)CN2C(=O)[C@@H](NC(=O)CCCCCCCC(=O)N(C)CCCc2cccc(F)c2OCCCc2sc(N3CCc4cccc(C(=O)Nc5nc6ccccc6s5)c4C3)nc2C(=O)O)C(C)(C)C)cc1 [I-11]
–	–	> 75%	< 10 nM	Cc1cc([C@@H](C(=O)N2C[C@H](O)C[C@H]2C(=O)NCc2ccc(-c3scnc3C)cc2OCCCN2CCN(C(=O)c3nc(N4CCc5cccc(C(=O)Nc6nc7ccccc7s6)c5C4)ccc3-c3cnn(CC4CCCCC4)c3C)CC2)C(C)C)on1 [I-268]
–	–	< 50%	> 1000 nM	Cc1ncsc1-c1ccc(CNC(=O)N2C[C@@H](O)CC2C(=O)[C@@H](NC(=O)C2(F)CC2)C(C)(C)C)c(O[C@H]2C[C@H](N3CCC(NC(=O)c4nc(N5CCc6cccc(C(=O)Nc7nc8ccccc8s7)c6C5)ccc4-c4cnn(CC5CCCCC5)c4C)CC3)C2)c1 (some centres unmarked) [I-269]
–	–	< 50%	> 1000 nM	Cc1ncsc1-c1ccc(CNC(=O)[C@@H]2C[C@@H](O)CN2C(=O)[C@@H](NC(=O)C2(F)CC2)C(C)(C)C)c(N2CCC(N3CCC(NC(=O)c4nc(N5CCc6cccc(C(=O)Nc7nc8ccccc8s7)c6C5)ccc4-c4cnn(CC5CCCCC5)c4C)CC3)CC2)c1 [I-270]
–	–	> 75%	10 to 100 nM	Cc1ncsc1-c1ccc([C@H](C)NC(=O)[C@@H]2C[C@@H](O)CN2C(=O)[C@@H](c2cc(OC3CN(CCCS(=O)(=O)NC(=O)c4nc(N5CCc6cccc(C(=O)Nc7nc8ccccc8s7)c6C5)ccc4-c4cnn(CC5CCCCC5)c4C)C3)no2)C(C)C)cc1 [I-271]
–	–	> 75%	< 10 nM	Cc1cc(S(=O)(=O)NC(=O)c2nc(N3CCc4cccc(C(=O)Nc5nc6ccccc6s5)c4C3)ccc2-c2cnn(CC3CCCCC3)c2C)ccc1N1CCC(C(=O)N[C@H](C(=O)N2C[C@H](O)C[C@H]2C(=O)N[C@@H](C)c2ccc(-c3scnc3C)cc2)C(C)(C)C)CC1 [I-273]
–	–	50 to 75%	10 to 100 nM	Cc1ncsc1-c1ccc([C@H](C)NC(=O)[C@@H]2C[C@@H](O)CN2C(=O)[C@@H](NC(=O)C2CCN(c3ccc(S(=O)(=O)NC(=O)c4nc(N5CCc6cccc(C(=O)Nc7nc8ccccc8s7)c6C5)ccc4-c4cnn(CC5CCCCC5)c4C)cc3Cl)CC2)C(C)(C)C)cc1 [I-274]
–	–	> 75%	10 to 100 nM	Cc1ncsc1-c1ccc([C@H](C)NC(=O)[C@@H]2C[C@@H](O)CN2C(=O)[C@@H](NC(=O)C2CCN(c3ccc(S(=O)(=O)NC(=O)c4nc(N5CCc6cccc(C(=O)Nc7nc8ccccc8s7)c6C5)ccc4-c4cnn(CC5CCCCC5)c4C)c(Cl)c3)CC2)C(C)(C)C)cc1 [I-276]
